Test results: patent EP1268487B1, “TRICYCLIC PROTEIN KINASE INHIBITORS” (Wyeth, priority 2000, dated 2001)
Converted amounts (≈) assume the structure as drawn.

Key:
[1] = biological target: T1, Epidermal Growth Factor Receptor Kinase (EGF-R) (Homo sapiens, UniProt P00533); assay: Inhibition of Epidermal Growth Factor Receptor Kinase (EGF-R) using recombinant enzyme; format: biochemical
T1 construct: containing the EGFR cDNA encoding amino acids 645 - 1186 preceded by Met-Ala-(His)6; Met-Ala-(His)6 (N); made in house; host or cells: Sf9 insect cells (baculovirus vHcEGFR52)
T1 sequence (P00533 669-1210): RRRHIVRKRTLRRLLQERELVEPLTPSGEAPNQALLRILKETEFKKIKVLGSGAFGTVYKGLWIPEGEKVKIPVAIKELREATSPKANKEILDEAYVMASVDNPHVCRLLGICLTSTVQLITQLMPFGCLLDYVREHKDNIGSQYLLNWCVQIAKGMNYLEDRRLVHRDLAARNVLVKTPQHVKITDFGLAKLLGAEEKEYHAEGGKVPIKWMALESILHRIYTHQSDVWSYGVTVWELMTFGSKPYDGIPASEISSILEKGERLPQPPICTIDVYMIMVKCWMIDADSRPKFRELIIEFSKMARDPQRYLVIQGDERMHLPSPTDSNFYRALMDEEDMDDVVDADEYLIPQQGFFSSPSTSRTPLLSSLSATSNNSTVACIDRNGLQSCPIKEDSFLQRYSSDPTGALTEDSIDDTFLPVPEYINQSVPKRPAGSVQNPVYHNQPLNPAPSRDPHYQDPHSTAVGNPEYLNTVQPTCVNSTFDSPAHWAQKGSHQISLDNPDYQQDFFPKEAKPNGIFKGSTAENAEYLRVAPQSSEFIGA
Procedure: Representative test compounds were evaluated for their ability to inhibit the phosphorylation of the tyrosine residue of a peptide substrate catalyzed by the enzyme epidermal growth factor receptor kinase. The peptide substrate (RR-SRC) has the sequence arg-arg-leu-ile-glu-asp-ala-glu-tyr-ala-ala-arg-gly. The enzyme used in this assay is the His-tagged cytoplasmic domain of EGFR. A recombinant baculovirus (vHcEGFR52) was constructed containing the EGFR cDNA encoding amino acids 645 - 1186 preceded by Met-Ala-(His)6. Sf9 cells in 100 mm plates were infected at an moi of 10 pfu/cell and cells were harvested 48 hours post infection. A cytoplasmic extract was prepared using 1% Triton X-100 and applied to Ni-NTA column. After washing the column with 20 mM imidazole, HcEGFR was eluted with 250 mM imidazole (in 50 mM Na2HPO4, pH 8.0, 300 mM NaCl). Fractions collected were dialyzed against 10 mM HEPES, pH 7.0, 50 mM NaCl, 10% glycerol, 1µg/mL antipain and leupeptin and 0.1 mM Pefabloc SC. The protein was frozen in dry ice/methanol and stored -70° C.
Test compounds were made into 10 mg/mL stock solutions in 100% dimethylsulfoxide (DMSO). Prior to experiment, stock solutions were diluted to 500 µM with 100% DMSO and then serially diluted to the desired concentration with HEPES buffer (30 mM HEPES pH 7.4).
For the enzyme reaction, 10 µL of each inhibitor (at various concentrations) were added to each well of a 96-well plate. To this was added 3 µL of enzyme (1:10 dilution in 10mM HEPES, pH 7.4 for final conc. of 1:120). This was allowed to sit for 10 minutes on ice and was followed by the addition of 5 µl peptide (80 uM final conc.), 10µl of 4X Buffer (Table A), 0.25 µL ^33P-ATP and 12 µL H2O. The reaction was allowed to run for 90 minutes at room temperature and was followed by spotting the entire volume on to precut P81 filter papers. The filter discs were washed 2X with 0.5% phosphoric acid and radioactivity was measured using a liquid scintillation counter. Table A
The inhibition data for representative compounds of the invention are shown below in TABLE 1. The IC50 is the concentration of test compound needed to reduce the total amount of phosphorylated substrate by 50%. The % inhibition of the test compound was determined for at least three different concentrations and the IC50 value was evaluated from the dose response curve. […] CPM(control) is in units of counts per minute and was a number expressing the amount of radiolabeled ATP (γ-^33P) incorporated into the RR-SRC peptide substrate by the enzyme after 90 minutes at room temperature in the absence of test compound as measured by liquid scintillation counting. The CPM values were corrected for the background counts produced by ATP in the absence of the enzymatic reaction. Where it was possible to determine an IC50 value, this is reported in TABLE 1 otherwise the % inhibition at 0.5 µM concentration of test compound is shown in TABLE 1.

A431 = assay: Inhibition of cancer cell growth as measured by cell number (Sulforhodamine B); format: cell-based; conditions: Homo sapiens, A-431; 48 hours exposure
Procedure: (§1) Human tumor cell lines were plated in 96-well plates (250 µl/well, 1-6 x 10^4 cells/ml) in RPMI 1640 medium, containing 5% FBS (Fetal Bovine Serum). […] After 48 hours exposure to test compounds, cells were fixed with trichloroacetic acid, and stained with Sulforhodamine B. After washing with trichloroacetic acid, bound dye was solubilized in 10 mM Tris base and optical density was determined using a plate reader. Under conditions of the assay the optical density is proportional to the number of cells in the well. IC50s (concentrations causing 50% inhibition of cell growth) were determined from the growth inhibition plots. The test procedure is described in details by Philip Skehan et. al, J.Natl. Canc. Inst., 82, 1107-1112 (1990). […] Information about some of the cell lines used in these test procedures is available from the American Type Tissue Collection: Cell Lines and Hybridomas, 1994 Reference Guide, 8th Edition. The Her2Neu cell line is a 3T3 line that has been transfected with Her2 receptor kinase.

MDA435 = assay: as above; format: cell-based; conditions: Homo sapiens, 48 hours exposure
Procedure: as §1

3T3 = assay: as above; format: cell-based; conditions: Mus musculus, NIH3T3; 48 hours exposure
Procedure: as §1

Her2Neu = assay: as above; format: cell-based; conditions: 48 hours exposure; 3T3 line transfected with Her2 receptor kinase
Procedure: as §1

SW620 = assay: as above; format: cell-based; conditions: Homo sapiens, SW-620; 48 hours exposure
Procedure: as §1

SKBR3 = assay: as above; format: cell-based; conditions: Homo sapiens, SK-BR-3; 48 hours exposure
Procedure: as §1

- inhibition at 0.5 µM ([1]; 0.5 µM concentration of test compound): 35.5%
- IC50 ([1]; recombinant enzyme): 1000 nM
- IC50 (A431): 0.527 µg/mL (≈ 1.49 µM)
- IC50 (MDA435): 1.43 µg/mL (≈ 4.03 µM)
- IC50 (Her2Neu): 3.9 µg/mL (≈ 11 µM)
- IC50 (SW620): 2.9 µg/mL (≈ 8.17 µM)
- IC50 (SKBR3): 0.968 µg/mL (≈ 2.73 µM)
Compound: N#Cc1cnc2cc3c(cc2c1Nc1ccc(F)c(Cl)c1)NCCO3 [Example 7, 9-(3-Chloro-4-fluoroanilino)-2,3-dihydro-1H-[1,4]oxazino[3,2-g]quinoline-8-carbonitrile]
- IC50 (3T3): 3.02 µg/mL (≈ 8.51 µM)
